Assay results taken from ChEMBL document CHEMBL3045279, “Chiral Synthesis of Pefurazoate Enantiomers and Their Antifungal Activity to Gibberella fujikuroi” (1992).
≈ marks a conversion by molar mass, not a printed value.

How the values were obtained:
Type in all cases: functional
Fusarium fujikuroi [1] = test: Antifungal activity against Fusarium fujikuroi assessed as mycelial growth inhibition at 2.5 ppm after 4 days relative to control; conditions: 96 h, read-out: GI
Fusarium fujikuroi [2] = test: Antifungal activity against Fusarium fujikuroi assessed as mycelial growth inhibition at 0.63 ppm after 4 days relative to control; conditions: 96 h, read-out: GI
Fusarium fujikuroi [3] = test: Antifungal activity against Fusarium fujikuroi assessed as mycelial growth inhibition at 0.31 ppm after 4 days relative to control; conditions: 96 h, read-out: GI
Fusarium fujikuroi [4] = test: Antifungal activity against Fusarium fujikuroi assessed as mycelial growth inhibition after 4 days; conditions: 96 h; for EC50: read-out: ED50 (the source's name)
Fusarium fujikuroi [5] = test: Antifungal activity against Fusarium fujikuroi assessed as mycelial growth inhibition at 5 ppm after 4 days relative to control; conditions: 96 h, read-out: GI
Fusarium fujikuroi [6] = test: Antifungal activity against Fusarium fujikuroi assessed as mycelial growth inhibition at 0.15 ppm after 4 days relative to control; conditions: 96 h, read-out: GI
Fusarium fujikuroi [7] = test: Antifungal activity against Fusarium fujikuroi assessed as mycelial growth inhibition at 1.25 ppm after 4 days relative to control; conditions: 96 h, read-out: GI
Fusarium fujikuroi [8] = test: Antifungal activity against Fusarium fujikuroi assessed as mycelial growth inhibition at 40 ppm after 4 days relative to control; conditions: 96 h, read-out: GI
Fusarium fujikuroi [9] = test: Inhibition of ergosterol biosynthesis in Fusarium fujikuroi assessed as [2-14C]-sodium acetate incorporation at 7.35 ppm after 2 hr by liquid scintillation counting analysis relative to control
Fusarium fujikuroi [10] = test: Antifungal activity against Fusarium fujikuroi assessed as mycelial growth inhibition at 20 ppm after 4 days relative to control; conditions: 96 h, read-out: GI
Fusarium fujikuroi [11] = test: Inhibition of ergosterol biosynthesis in Fusarium fujikuroi assessed as increase in 24-methylenedihydrolanosterol level in total lipids measuring [2-14C]-sodium acetate incorporation at 0.24 ppm after 2 hr by liquid scintillation counting analysis (reference value: 4.8 to 7.4%)
Fusarium fujikuroi [12] = test: Antifungal activity against Fusarium fujikuroi assessed as mycelial growth inhibition at 10 ppm after 4 days relative to control; conditions: 96 h, read-out: GI
Fusarium fujikuroi [13] = test: Inhibition of ergosterol biosynthesis in Fusarium fujikuroi assessed as decrease in ergosterol level in total lipids measuring [2-14C]-sodium acetate incorporation at 0.24 ppm after 2 hr by liquid scintillation counting analysis (reference value: 6 to 12.3%)
Fusarium fujikuroi [14] = test: Inhibition of ergosterol biosynthesis in Fusarium fujikuroi assessed as decrease in ergosterol level in total lipids measuring [2-14C]-sodium acetate incorporation at 7.35 ppm after 2 hr by liquid scintillation counting analysis (reference value: 6 to 12.3%)
Fusarium fujikuroi [15] = test: Inhibition of ergosterol biosynthesis in Fusarium fujikuroi assessed as increase in 24-methylenedihydrolanosterol level in total lipids measuring [2-14C]-sodium acetate incorporation at 7.35 ppm after 2 hr by liquid scintillation counting analysis (reference value: 4.8 to 7.4%)
Fusarium fujikuroi [16] = test: Inhibition of ergosterol biosynthesis in Fusarium fujikuroi assessed as [2-14C]-sodium acetate incorporation at 0.24 ppm after 2 hr by liquid scintillation counting analysis relative to control

SMILES | inhibition of growth at 2.5 ppm (Fusarium fujikuroi [1]) [%] | inhibition of growth at 0.63 ppm (Fusarium fujikuroi [2]) [%] | inhibition of growth at 0.31 ppm (Fusarium fujikuroi [3]) [%] | MIC (Fusarium fujikuroi [4]) [µg/mL] | EC50 (Fusarium fujikuroi [4]) [µg/mL] | inhibition of growth at 5 ppm (Fusarium fujikuroi [5]) [%] | inhibition of growth at 0.15 ppm (Fusarium fujikuroi [6]) [%] | inhibition of growth at 1.25 ppm (Fusarium fujikuroi [7]) [%] | inhibition of growth at 40 ppm (Fusarium fujikuroi [8]) [%] | inhibition at 7.35 ppm (Fusarium fujikuroi [9]) [%] | inhibition of growth at 20 ppm (Fusarium fujikuroi [10]) [%] | inhibition at 0.24 ppm (Fusarium fujikuroi [11]) [%] | inhibition of growth at 10 ppm (Fusarium fujikuroi [12]) [%] | inhibition at 0.24 ppm (Fusarium fujikuroi [13]) [%] | inhibition at 7.35 ppm (Fusarium fujikuroi [14]) [%] | inhibition at 7.35 ppm (Fusarium fujikuroi [15]) [%] | inhibition at 0.24 ppm (Fusarium fujikuroi [16]) [%]
C=CCCCOC(=O)C(CC)N(Cc1ccco1)C(=O)n1ccnc1 (racemic) [Pefurazoate] | 100 | 58 | 35 | 2.5 (≈ 7.24 µM) | 0.49 (≈ 1.42 µM) | 100 | 20 | 75 |  |  |  |  |  |  |  |  | 
C=CCCCOC(=O)[C@@H](CC)N(Cc1ccco1)C(=O)n1ccnc1 [(R)-(+)-pefurazoate] | 38 |  |  | 1.25 (≈ 3.62 µM) | 7.35 (≈ 21.3 µM) | 45 |  | 25 | 73 | 47 | 63 | 12.2 | 53 | 3.2 | 1.3 | 14.2 | 
C=CCCCOC(=O)[C@H](CC)N(Cc1ccco1)C(=O)n1ccnc1 [(S)-(-)-pefurazoate] | 100 | 78 | 60 | > 40 | 0.24 (≈ 0.695 µM) | 100 | 35 | 100 |  |  |  | 13.6 |  | 0.8 |  |  | 87
